In US8394355B2, “Use of UTP for the diagnosis of stenoses and other conditions of restricted blood flow” (P2 science Aps, priority 2009, dated 2013):

Key:
[1] = system: pulmonary and systemic circulation of healthy female pigs; assay: Systemic (central intravenous) nucleotide infusion in pigs, hemodynamic response; type: in vivo; details: for increase in CO (cardiac output): FIG. 7b; for increase in HR from baseline: FIG. 7c; for decrease in SV (stroke volume): FIG. 7d; for MAP lowered by, from baseline: p<0.05, FIG. 7a; for infusion rate at target MAP: target ~50% reduction in baseline MAP, right atrium infusion
Protocol: In the present study, the hemodynamic response in the pulmonary and systemic circulation was tested, as well as the effect of central intravenous infusions of ATP, ADP, ADO, and UTP on the heart.
Infusion rates were aimed at exerting a pronounced systemic response in the lowering of arterial blood pressure, but avoiding a total circulatory collapse.
Methods: 10 healthy female pigs (Department of Experimental Medicine and Surgery, University of Copenhagen, Denmark) bred as a combination of the Danish Landrace (⅓) and Yorkshire (⅔), with a medium weight of 41±2 kg were investigated.
Mean arterial blood pressure (MAP) was obtained from the catheter in arcus aorta with the transducer (Pressure Monitoring Kit, Baxter, Deerfield, Ill., USA) positioned at the level of the heart. The left femoral artery was subsequently exposed and an ultrasound doppler probe attached for peripheral femoral artery flow measurements (CM-4000, Cardiomed, Norway). MAP, HR and peripheral flow were monitored and data continuously collected using a PowerLab system (Adinstruments, Australia). Cardiac Output (CO) was determined in triplicates by thermodilution, following an injection of 10 ml of cooled saline solution. Blood samples were withdrawn from catheters in aorta and the right atrium at baseline and at steady state when MAP had decreased maximally or by ˜50%. Calculated variables were: stroke volume of the heart (SV=CO/HR), pulmonary vascular resistance (PVR=(MPAP−PCWP)/CO), systemic vascular resistance (SVR=(MAP−MRAP)/CO), leg vascular conductance (LVC=LBF/(MAP−MRAP)), and arterial (aorta) and mixed venous (pulmonary artery) oxygen content (Hb*1.34*O2 saturation). In the calculation of LVC, MRAP was used as an estimate of mean femoral venous pressure (MFVP), as MRAP was found in a series of measurements to equal MFVP, as estimated in 10 supine pigs. As a potential estimate for myocardial oxygen demand the rate pressure product (RPP=MAP*HR) was also calculated.
Drug infusions: Each animal was administered the nucleotides ATP, UTP, ADP (Sigma, St. Louis, Mo., USA) and ADO (Item Development AB, Stocksund, Sweden), through the internal jugular vein in the right atrium, in random order following blinded allocation. The nucleotides and ADO were prepared by dissolving in saline so as to achieve the target concentration of ATP (40±0.5 μmol/min), ADP (43±8 μmol/min), UTP (up to 1,600 μmol/min), and ADO (73±7 μmol/min). The nucleotides were infused in increasing dosages at 2 min intervals aiming at reducing MAP by maximally ˜50%. Thereafter, that specific infusion rate was maintained for ˜3-5 min. After each intervention the animal rested for ˜30 min, allowing resting cardiovascular variables to be reestablished. Thereafter, a new cycle of nucleotide infusion was administered. In the present study we aimed to allow the drugs to reduce MAP by ˜50%, but without inducing a hemodynamic and circulatory collapse, to simulate a pronounced state of systemic vasodilation, as may be observed for instance in a shock condition.

leg blood flow = details: cited from earlier work; for relative vasoactive potency (rank order): only for blood flows around 3.5 Lmin^−1
[2] = system: infarct area during acute myocardial infarction; assay: ADP or UTP infusion during myocardial infarction in pigs (unpublished); type: in vivo; details: infused during acute myocardial infarction, unpublished results
Excerpt: This is clearly in contrast to previous findings, but is more clinically relevant as most cardiac patients are older. […] This conclusion is also supported by another study by the present inventor in pigs where ADP or UTP was infused during myocardial infarction. […] Therefore, the previous assumptions in patent application WO 2007/065437 relating to the regulation of purinergic receptor activity to modulate vascular tone, particularly for treating hemodynamic conditions by overriding vasoconstriction activity, which could potentially have clinical applications for treatment with UTP agonists or antagonists, is incorrect.

Row | SMILES | increase in CO (cardiac output) [1] | increase in HR from baseline [1] [%] | decrease in SV (stroke volume) [1] | PVR reached during titration ([1]; dose dependent increase) [Wood Unit] | decrease in LBF (leg blood flow) from baseline ([1]; p<0.05) [%] | decrease in SVR (systemic vascular resistance) from baseline ([1]; p<0.05) [%] | increase in PVR ([1]; p<0.05) [%] | MAP lowered by, from baseline [1] [%] | infusion rate at target MAP [1] [µmol/min] | relative vasoactive potency (rank order) (leg blood flow) | effect on infarct area [2] | increase in LVC (leg vascular conductance) from baseline ([1]; p<0.05) [%] | decrease in PVR (pulmonary vascular resistance) from baseline ([1]; pig, in vivo) [%] | blood flow increase, % of maximum in the leg during hard exercise (leg blood flow; local infusion) [%]
1 | Nc1ncnc2c1ncn2[C@@H]1O[C@H](COP(=O)(O)OP(=O)(O)O)[C@@H](O)[C@H]1O [ADP] | not alter CO | 26.6±4.6 | 21.1±5.6% | 7.3±1.2 | 34.9±10.2 | 49.5±2.0 | 156.7±38.3 | 48.4±1.2 | 43.2 ± 7.7 | 2.7 | diminished it | – | – | –
2 | Nc1ncnc2c1ncn2[C@@H]1O[C@H](COP(=O)(O)O)[C@@H](O)[C@H]1O [AMP] | – | – | – | – | – | – | – | – | – | 1.7 | – | – | – | –
3 | Nc1ncnc2c1ncn2[C@@H]1O[C@H](COP(=O)(O)OP(=O)(O)OP(=O)(O)O)[C@@H](O)[C@H]1O [ATP] | 35.1±6.9% | 23.0±5.7 | did not significantly change SV | – | 22.7±4.2 | 61.6±2.1 | – | 47.4±1.7 | 40.2 ± 0.5 | 100 | – | 44.7±8.7 | 37.8±4.9 | 85
